The results in this text go back to publication PMC4870679, “A novel pathway for fungal D-glucuronate catabolism contains an L-idonate forming 2-keto-L-gulonate reductase” (Scientific Reports, 2016).

Assay [1] relates to GluC (2-keto-L-gulonate reductase). The assay is described as follows: NADH formation at […] nm, Konelab analyser. It counts as biochemical, Aspergillus niger. The settings on record: 400 uM NAD+, 50 mM Tris pH 8; reverse direction.
The test system is the same in assay [2]. The assay can be described thus: NADH consumption at […] nm, Konelab analyser. It counts as biochemical, Aspergillus niger. The settings on record: 400 uM NADH, 50 mM Tris pH 7.

Take `O=C(O)[C@H](O)[C@@H](O)[C@H](O)[C@@H](O)CO` [L-idonate]: the Km (usually the concentration of substrate that gives half-maximal velocity) in assay [1] is 20 mM.
Take `O=C(O)C(=O)[C@@H](O)[C@H](O)[C@@H](O)CO` [2-keto-L-gulonate]: in assay [2], the Km amounted to 30 mM.
